Results from EP2951180B1, “2,6,7,8 SUBSTITUTED PURINES AS HDM2 INHIBITORS” (Merck Sharp & Dohme Corp., priority 2013, dated 2014).
pIC50: −log10 of the molar value.

Each compound was assayed against T1, HDM2 (Homo sapiens, UniProt Q00987) (assay: HDM2 FRET assay (inhibition of binding of FITC labeled p53-pocket peptide to HDM2)). Conditions: Table 22; read-out: FRET IC50.
T1 construct: Thioredoxin (N); made in house; host or cells: E. coli strain BL21(DE3)Rosetta
Procedure, shortened: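 Displacement of FITC-p53 peptide (3 nM) from His-tagged HDM2 (0.5 nM) is measured by Tb-to-fluorescein FRET in PBS, 0.01% BSA, 0.01% Tween-20. IC50 values derive from 10-point curves.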

T1 sequence (Q00987 17-125): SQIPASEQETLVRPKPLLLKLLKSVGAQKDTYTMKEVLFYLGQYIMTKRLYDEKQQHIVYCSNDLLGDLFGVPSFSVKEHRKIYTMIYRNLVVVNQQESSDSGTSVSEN

Row | SMILES | pIC50
1 | C[C@@H](Nc1nc(-c2noc(=O)[nH]2)nc2nc(C3(c4ccc(F)cc4)CC3)n(C[C@H]3CC[C@H](C)CC3)c12)C1CCC1 [Example 22.30, 3-(6-{[(1R)-1-cyclobutylethyl]amino}-8-[1-(4-fluorophenyl)cyclopropyl] -7-[(trans-4-methylcyclohexyl)methyl] -7H-purin-2-yl)-1,2,4-oxadiazol-5(4H)-one] | 8.00
2 | C[C@@H](Nc1nc(-c2noc(=O)[nH]2)nc2nc(C(=O)C3CCOCC3)n(C[C@H]3CC[C@H](C)CC3)c12)C1CCC1 [Example 22.31, 3-[6-{[(1R)-1-cyclobutylethyl]amino}-7-[(trans-4-methylcyclohexyl)methyl] -8-(tetrahydro-2H-pyran-4-ylcarbonyl)-7H-purin-2-yl]-1,2,4-oxadiazol-5(4H)-one] | 8.19
3 | CC(=O)c1nc2nc(-c3noc(=O)[nH]3)nc(N[C@H](C)C3CCC3)c2n1C[C@H]1CC[C@H](C)CC1 [Example 22.32, 3-(8-acetyl-6-{[(1R)-1-cyclobutylethyl]amino}-7-[(trans-4-methylcyclohexyl)methyl] -7H-purin-2-yl)-1,2,4-oxadiazol-5(2H)-one] | 7.60
4 | C=C(c1nc2nc(-c3noc(=O)n3C)nc(N[C@H](C)C3CCC3)c2n1C[C@H]1CC[C@H](C)CC1)C(C)(C)C [Example 22.33, 3-(6-{[(1R)-1-cyclobutylethyl]amino}-8-(2,2-dimethyl-1-methylidenepropyl)-7-[(trans-4-methylcyclohexyl)methyl] -7H-purin-2-yl)-4-methyl-1,2,4-oxadiazol-5(4H)-one] | 6.54
5 | C[C@@H](Nc1nc(-c2noc(=O)[nH]2)nc2nc(C(O)C3CCOCC3)n(C[C@H]3CC[C@H](C)CC3)c12)C1CCC1 (stereo partly drawn) [Example 22.34, 3-(6-{[(1R)-1-cyclobutylethyl]amino}-8-[hydroxy(tetrahydro-2H-pyran-4-yl)methyl]-7-[(trans-4-methylcyclohexyl)methyl] -7H-purin-2-yl)-1,2,4-oxadiazol-5(4H)-one] | 7.61
6 | C[C@@H](Nc1nc(-c2noc(=O)[nH]2)nc2nc(C(C)(O)c3ccncc3)n(C[C@H]3CC[C@H](C)CC3)c12)C1CCC1 (stereo partly drawn) [Example 22.36, 3-(6-{[(1R)-1-cyclobutylethyl]amino}-8-(1-hydroxy-1-pyridin-4-ylethyl)-7-[(trans-4-methylcyclohexyl)methyl] -7H-purin-2-yl)-1,2,4-oxadiazol-5(4H)-one] | 7.86
7 | C[C@@H](Nc1nc(-c2noc(=O)[nH]2)nc2nc(C(C)(O)C3CCOCC3)n(C[C@H]3CC[C@H](C)CC3)c12)C1CCC1 (stereo partly drawn) [Example 22.38, 3-(6-{[(1R)-1-cyclobutylethyl]amino}-8-[1-hydroxy-1-(tetrahydro-2H-pyran-4-yl)ethyl]-7-[(trans-4-methylcyclohexyl)methyl] -7H-purin-2-yl)-1,2,4-oxadiazol-5(4H)-one] | 8.32
8 | C[C@@H](Nc1nc(-c2noc(=O)[nH]2)nc2nc(C3(c4cccnc4)CC3)n(C[C@H]3CC[C@H](C)CC3)c12)C1CCC1 [Example 22.39, 3-[6-{[(1R)-1-cyclobutylethyl]amino}-7-[(trans-4-methylcyclohexyl)methyl] -8-(1-pyridin-3-ylcyclopropyl)-7H-purin-2-yl]-1,2,4-oxadiazol-5(2H)-one] | 7.86
9 | C[C@@H](Nc1nc(-c2noc(=O)[nH]2)nc2nc(C(C)(O)c3cccnc3)n(C[C@H]3CC[C@H](C)CC3)c12)C1CCC1 (stereo partly drawn) [Example 22.40, 3-(6-{[(1R)-1-cyclobutylethyl]amino}-8-(1-hydroxy-1-pyridin-3-ylethyl)-7-[(trans-4-methylcyclohexyl)methyl] -7H-purin-2-yl)-1,2,4-oxadiazol-5(2H)-one] | 7.38
10 | C[C@@H](Nc1nc(-c2noc(=O)[nH]2)nc2nc(C(O)C3CCCC3)n(C[C@H]3CC[C@H](C)CC3)c12)C1CCC1 (stereo partly drawn) [Example 22.41, 3-(6-{[(1R)-1-cyclobutylethyl]amino}-8-[cyclopentyl(hydroxy)methyl]-7-[(trans-4-methylcyclohexyl)methyl] -7H-purin-2-yl)-1,2,4-oxadiazol-5(2H)-one] | 8.92
11 | C=C(c1nc2nc(-c3noc(=O)[nH]3)nc(N[C@H](C)C3CCC3)c2n1C[C@H]1CC[C@H](C)CC1)C1CCOCC1 [Example 22.42, 3-(6-{[(1R)-1-cyclobutylethyl]amino}-7-[(trans-4-methylcyclohexyl)methyl] -8-[1-(tetrahydro-2H-pyran-4-yl)ethenyl]-7H-purin-2-yl)-1,2,4-oxadiazol-5(4H)-one] | 8.30
12 | C[C@@H](Nc1nc(-c2noc(=O)[nH]2)nc2nc(C3(O)CCCCC3)n(C[C@H]3CC[C@H](C)CC3)c12)C1CCC1 [Example 22.43, 3-(6-{[(1R)-1-cyclobutylethyl]amino}-8-(1-hydroxycyclohexyl)-7-[(trans-4-methylcyclohexyl)methyl] -7H-purin-2-yl)-1,2,4-oxadiazol-5(4H)-one] | 7.88
13 | C[C@@H](Nc1nc(-c2noc(=O)[nH]2)nc2nc(C(C)(C)O)n(C[C@H]3CC[C@H](C)CC3)c12)C1CCC1 [Example 22.44, 3-(6-{[(1R)-1-cyclobutylethyl]amino}-8-(1-hydroxy-1-methylethyl)-7-[(trans-4-methylcyclohexyl)methyl] -7H-purin-2-yl)-1,2,4-oxadiazol-5(4H)-one] | 7.69
14 | CC(C)C(O)c1nc2nc(-c3noc(=O)[nH]3)nc(N[C@H](C)C3CCC3)c2n1C[C@H]1CC[C@H](C)CC1 (stereo partly drawn) [Example 22.45, 3-(6-{[(1R)-1-cyclobutylethyl]amino}-8-(1-hydroxy-2-methylpropyl)-7-[(trans-4-methylcyclohexyl)methyl] -7H-purin-2-yl)-1,2,4-oxadiazol-5(4H)-one] | 8.44
15 | C[C@@H](Nc1nc(-c2noc(=O)[nH]2)nc2nc(C3CCCCC3O)n(C[C@H]3CC[C@H](C)CC3)c12)C1CCC1 (stereo partly drawn) [Example 22.46, 3-(6-{[(1R)-1-cyclobutylethyl]amino}-8-(2-hydroxycyclohexyl)-7-[(trans-4-methylcyclohexyl)methyl] -7H-purin-2-yl)-1,2,4-oxadiazol-5(4H)-one] | 6.35
16 | C[C@@H](Nc1nc(-c2noc(=O)[nH]2)nc2nc(C(O)C3CCCC3)n(C[C@H]3CC[C@H](C)CC3)c12)C1CCC1 (stereo partly drawn) [Example 22.47, 3-(6-{[(1R)-1-cyclobutylethyl]amino}-8-[cyclopentyl(hydroxy)methyl]-7-[(trans-4-methylcyclohexyl)methyl] -7H-purin-2-yl)-1,2,4-oxadiazol-5(4H)-one] | 8.30
17 | CC(C)C(O)c1nc2nc(-c3noc(=O)[nH]3)nc(N[C@H](C)C3CCC3)c2n1C[C@H]1CC[C@H](C)CC1 (stereo partly drawn) [Example 22.48, 3-(6-{[(1R)-1-cyclobutylethyl]amino}-8-(1-hydroxy-2-methylpropyl)-7-[(trans-4-methylcyclohexyl)methyl] -7H-purin-2-yl)-1,2,4-oxadiazol-5(4H)-one] | 7.52
18 | C[C@@H](Nc1nc(-c2noc(=O)[nH]2)nc2nc(C3(c4cccc(F)c4)CC3)n(C[C@H]3CC[C@H](C)CC3)c12)C1CCC1 [Example 22.49, 3-(6-{[(1R)-1-cyclobutylethyl]amino}-8-[1-(3-fluorophenyl)cyclopropyl] -7-[(trans-4-methylcyclohexyl)methyl] -7H-purin-2-yl)-1,2,4-oxadiazol-5(4H)-one] | 7.77
19 | C[C@@H](Nc1nc(-c2noc(=O)[nH]2)nc2nc(C(C)(O)c3cscn3)n(C[C@H]3CC[C@H](C)CC3)c12)C1CCC1 (stereo partly drawn) [Example 22.50, 3-(6-{[(1R)-1-cyclobutylethyl]amino}-8-[1-hydroxy-1-(1,3-thiazol-4-yl)ethyl]-7-[(trans-4-methylcyclohexyl)methyl] -7H-purin-2-yl)-1,2,4-oxadiazol-5(4H)-one] | 7.99
20 | C[C@@H](Nc1nc(-c2noc(=O)[nH]2)nc2nc(C(C)(O)c3cccnc3)n(C[C@H]3CC[C@H](C)CC3)c12)C1CCC1 (stereo partly drawn) [Example 22.51, 3-(6-{[(1R)-1-cyclobutylethyl]amino}-8-(1-hydroxy-1-pyridin-3-ylethyl)-7-[(trans-4-methylcyclohexyl)methyl] -7H-purin-2-yl)-1,2,4-oxadiazol-5(2H)-one] | 7.67
21 | C[C@@H](Nc1nc(-c2noc(=O)[nH]2)nc2nc(C(C)(O)c3cscn3)n(C[C@H]3CC[C@H](C)CC3)c12)C1CCC1 (stereo partly drawn) [Example 22.52, 3-(6-{[(1R)-1-cyclobutylethyl]amino}-8-[1-hydroxy-1-(1,3-thiazol-4-yl)ethyl]-7-[(trans-4-methylcyclohexyl)methyl] -7H-purin-2-yl)-1,2,4-oxadiazol-5(4H)-one] | 8.73
22 | C[C@@H](Nc1nc(-c2noc(=O)[nH]2)nc2nc(C3(c4ccncc4)CC3)n(C[C@H]3CC[C@H](C)CC3)c12)C1CCC1 [Example 22.53, 3-[6-{[(1R)-1-cyclobutylethyl]amino}-7-[(trans-4-methylcyclohexyl)methyl] -8-(1-pyridin-4-ylcyclopropyl)-7H-purin-2-yl]-1,2,4-oxadiazol-5(4H)-one] | 8.34
23 | C[C@@H](Nc1nc(-c2noc(=O)[nH]2)nc2nc(C3(c4cscn4)CC3)n(C[C@H]3CC[C@H](C)CC3)c12)C1CCC1 [Example 22.54, 3-(6-{[(1R)-1-cyclobutylethyl]amino}-7-[(trans-4-methylcyclohexyl)methyl] -8-[1-(1,3-thiazol-4-yl)cyclopropyl]-7H-purin-2-yl)-1,2,4-oxadiazol-5(4H)-one] | 8.65
24 | C[C@@H](Nc1nc(-c2noc(=O)[nH]2)nc2nc(C(C)(O)c3ccn(C)n3)n(C[C@H]3CC[C@H](C)CC3)c12)C1CCC1 (stereo partly drawn) [Example 22.55, 3-(6-{[(1R)-1-cyclobutylethyl]amino}-8-[1-hydroxy-1-(1-methyl-1H-pyrazol-3-yl)ethyl]-7-[(trans-4-methylcyclohexyl)methyl] -7H-purin-2-yl)-1,2,4-oxadiazol-5(2H)-one] | 7.64
25 | C[C@@H](Nc1nc(-c2noc(=O)[nH]2)nc2nc(C(C)(O)c3nccs3)n(C[C@H]3CC[C@H](C)CC3)c12)C1CCC1 (stereo partly drawn) [Example 22.56, 3-(6-{[(1R)-1-cyclobutylethyl]amino}-8-[1-hydroxy-1-(1,3-thiazol-2-yl)ethyl]-7-[(trans-4-methylcyclohexyl)methyl] -7H-purin-2-yl)-1,2,4-oxadiazol-5(4H)-one] | 8.61
